Tests used:
[1] = system: BT474 (breast cancer cell line); experiment: In vitro cytotoxicity by MTT assay, BT474; format: cell-based; settings: Homo sapiens, 72 h; for cytotoxicity at 0.005 µM: BT-474, 0.005 μM; for cytotoxicity at 0.005 µM / cytotoxicity at 0.015 µM / cytotoxicity at 0.045 µM / cytotoxicity at 0.13 µM / cytotoxicity at 0.41 µM / cytotoxicity at 1.23 µM / cytotoxicity at 3.7 µM / cytotoxicity at 11.11 µM / cytotoxicity at 33.33 µM / cytotoxicity at 100 µM: read-out: % cytotoxicity (100 − % cell survival) of BT474 cell line; for cytotoxicity at 0.015 µM: BT-474, 0.015 μM; for cytotoxicity at 0.045 µM: BT-474, 0.045 μM; for cytotoxicity at 0.13 µM: BT-474, 0.13 μM; for cytotoxicity at 0.41 µM: BT-474, 0.41 μM; for cytotoxicity at 1.23 µM: BT-474, 1.23 μM; for cytotoxicity at 3.7 µM: BT-474, 3.7 μM; for cytotoxicity at 11.11 µM: BT-474, 11.11 μM; for cytotoxicity at 33.33 µM: BT-474, 33.33 μM; for cytotoxicity at 100 µM: BT-474, 100 μM
Protocol: (§1) The cancer cell line cultures of HEK 293 ([…]), BT474 (breast cancer cell line) and NCI-H226 (lung cancer) were obtained from Pasteur Institute of India, Coonoor, India, and were cultured in RPMI-1640 and 10 % heat-[…] New born calf serum with antibiotics [penicillin ([…]), streptomycin (100 μg/mL) and amphotericin B (25 μg/mL)]. The cells were maintained at 37 °C in a humidified atmosphere with 5 % CO2 and were subcultured twice a week.
(§2) The monolayer cell culture (100 μL) was trypsinized, and the cell count was adjusted to […] using medium containing 10 % new born calf serum. To each well of the 96-well microtitre plate, the diluted cell suspension (approximately 10,000 cells) (0.1 mL) was added and kept for 24 h in incubator at 37 °C in 5 % CO2 atmosphere for cell monolayer formation. After 24 h, when a partial monolayer was formed at the bottom of the well, the supernatant was flicked off, the monolayer was washed once, and different drugs, i.e. synthesized compounds (100 μL), were added to the cells in microtitre plates. The plates were then incubated at 37 °C for 3 days in 5 % CO2 atmosphere, and microscopic examination was carried out and observations recorded every 24 h. After 72 h, the sample solution in the wells was flicked off; MTT dye ([…]) was added to each well; plates were gently shaken and incubated for 4 h at 37 °C in 5 % CO2 incubator. The supernatant was removed and propanol (50 μL) was added; the plates were gently shaken to solubilize the formed formazan. The absorbance was measured using a microplate reader at a wavelength of 490 nm (Edmondson et al., [1988]; Prasad et al., [2005]; Chiruvella et al., [2008]; Chang et al., [2007]).

[2] = system: NCI-H226 (lung cancer cell line); experiment: In vitro cytotoxicity by MTT assay, NCI-H226; format: cell-based; settings: Homo sapiens, 72 h, read-out: % Cytotoxicity (100 − % cell survival) of NCI-H226 cell line; for cytotoxicity at 0.005 µM: NCI-H226, 0.005 μM; for cytotoxicity at 0.045 µM: NCI-H226, 0.045 μM; for cytotoxicity at 0.13 µM: NCI-H226, 0.13 μM; for cytotoxicity at 0.41 µM: NCI-H226, 0.41 μM; for cytotoxicity at 1.23 µM: NCI-H226, 1.23 μM; for cytotoxicity at 3.7 µM: NCI-H226, 3.7 μM; for cytotoxicity at 11.11 µM: NCI-H226, 11.11 μM; for cytotoxicity at 33.33 µM: NCI-H226, 33.33 μM; for cytotoxicity at 100 µM: NCI-H226, 100 μM
Protocol: as §1, §2

[3] = In vitro cytotoxicity by MTT assay, NCI-H226; format: cell-based; settings: human, NCI-H226 lung cancer cells, 0.015 μM, read-out: % Cytotoxicity (100 − % cell survival) of NCI-H226 cell line
Protocol: as §1, §2

[4] = In vitro cytotoxicity by MTT assay, HEK 293; format: cell-based, human; settings: human, HEK 293 cells, read-out: % cytotoxicity (100 − % cell survival) of HEK 293 cell line
Protocol: as §1, §2

Row | SMILES | cytotoxicity at 0.005 µM [1] [%] | cytotoxicity at 0.015 µM [1] [%] | cytotoxicity at 0.045 µM [1] [%] | cytotoxicity at 0.13 µM [1] [%] | cytotoxicity at 0.41 µM [1] [%] | cytotoxicity at 1.23 µM [1] [%] | cytotoxicity at 3.7 µM [1] [%] | cytotoxicity at 11.11 µM [1] [%] | cytotoxicity at 33.33 µM [1] [%] | cytotoxicity at 100 µM [1] [%] | cytotoxicity at 0.005 µM [2] [%] | cytotoxicity at 0.045 µM [2] [%] | cytotoxicity at 0.13 µM [2] [%] | cytotoxicity at 0.41 µM [2] [%] | cytotoxicity at 1.23 µM [2] [%] | cytotoxicity at 3.7 µM [2] [%] | cytotoxicity at 11.11 µM [2] [%] | cytotoxicity at 33.33 µM [2] [%] | cytotoxicity at 100 µM [2] [%] | cytotoxicity at 72 h, 0.015 µM [3] [%] | further results
1 | Nc1ccc(S(=O)(=O)Nc2nnc(S(=O)(=O)NC(=O)c3ccc(Cl)cc3)s2)cc1 [Compound 7g] | 27.3 | 28.4 | 30 | 31.3 | 32.7 | 33.2 | 34.7 | 37.7 | 38.5 | 40.1 | 30.7 | 33.6 | 35.3 | 35.7 | 36.1 | 36.3 | 37.1 | 38.7 | 39 | 32.8 | cytotoxicity at 72 h, 0.005 µM [4]: 29.1%; cytotoxicity at 72 h, 0.015 µM [4]: 31.2%; cytotoxicity at 72 h, 0.045 µM [4]: 33.3%; cytotoxicity at 72 h, 0.13 µM [4]: 35.1%; cytotoxicity at 72 h, 0.41 µM [4]: 35.9%; cytotoxicity at 72 h, 1.23 µM [4]: 36.5%; cytotoxicity at 72 h, 3.7 µM [4]: 37.2%; cytotoxicity at 72 h, 11.11 µM [4]: 38.1%; cytotoxicity at 72 h, 33.33 µM [4]: 40.3%; cytotoxicity at 72 h, 100 µM [4]: 42.9%
2 | Nc1nnc(S(=O)(=O)NC(=O)c2ccccc2N)s1 [Compound 4b] | 16.2 | 16.6 | 17.4 | 18 | 18.1 | 19.9 | 20.5 | 22.2 | 23.3 | 26.7 | 32.1 | 33.5 | 34 | 34.7 | 35.1 | 36 | 36.3 | 37.2 | 39.5 | 32.9 | cytotoxicity at 72 h, 0.005 µM [4]: 41.5%; cytotoxicity at 72 h, 0.015 µM [4]: 47%; cytotoxicity at 72 h, 0.045 µM [4]: 50.4%; cytotoxicity at 72 h, 0.13 µM [4]: 53.6%; cytotoxicity at 72 h, 0.41 µM [4]: 57.6%; cytotoxicity at 72 h, 1.23 µM [4]: 58.1%; cytotoxicity at 72 h, 3.7 µM [4]: 59.7%; cytotoxicity at 72 h, 11.11 µM [4]: 62.3%; cytotoxicity at 72 h, 33.33 µM [4]: 63.1%; cytotoxicity at 72 h, 100 µM [4]: 65.4%
3 | Nc1nnc(S(=O)(=O)NC(=O)c2cccc([N+](=O)[O-])c2)s1 [Compound 4f] | 37.6 | 39 | 41.3 | 43.8 | 45.3 | 48.5 | 50.1 | 52.4 | 55.3 | 59.3 | 37.2 | 39.7 | 41.6 | 42.9 | 45.8 | 46.5 | 48.3 | 50.1 | 52.9 | 38.6 | CC50 ([1]; BT-474, BT474, concentration at which 50 % of the cells are dead, read-out: CTC50 (cytotoxicity concentration)): 1560 nM; cytotoxicity at 72 h, 0.005 µM [4]: 24.3%; cytotoxicity at 72 h, 0.015 µM [4]: 26.4%; cytotoxicity at 72 h, 0.045 µM [4]: 28.1%; cytotoxicity at 72 h, 0.13 µM [4]: 28.4%; cytotoxicity at 72 h, 0.41 µM [4]: 28.9%; cytotoxicity at 72 h, 1.23 µM [4]: 29.2%; cytotoxicity at 72 h, 3.7 µM [4]: 30%; cytotoxicity at 72 h, 11.11 µM [4]: 30.7%; cytotoxicity at 72 h, 33.33 µM [4]: 31.2%; cytotoxicity at 72 h, 100 µM [4]: 32%
4 | CC(=O)Nc1ccc(S(=O)(=O)Nc2nnc(S(=O)(=O)NC(=O)c3ccc(Cl)cc3)s2)cc1 [Compound 6g] | 30.5 | 32.8 | 33.9 | 34.1 | 37.6 | 38.2 | 39.5 | 42.4 | 44.2 | 46.4 | 33.5 | 36.8 | 37.3 | 39.8 | 40.6 | 41.3 | 42.6 | 43.2 | 46 | 35 | cytotoxicity at 72 h, 0.005 µM [4]: 15.1%; cytotoxicity at 72 h, 0.015 µM [4]: 16.5%; cytotoxicity at 72 h, 0.045 µM [4]: 18%; cytotoxicity at 72 h, 0.13 µM [4]: 18.3%; cytotoxicity at 72 h, 0.41 µM [4]: 20.1%; cytotoxicity at 72 h, 1.23 µM [4]: 20.8%; cytotoxicity at 72 h, 3.7 µM [4]: 24.2%; cytotoxicity at 72 h, 11.11 µM [4]: 26.1%; cytotoxicity at 72 h, 33.33 µM [4]: 28.7%; cytotoxicity at 72 h, 100 µM [4]: 32%
5 | CC(=O)Nc1ccc(S(=O)(=O)Nc2nnc(S(=O)(=O)NC(=O)c3ccccc3)s2)cc1 [Compound 6a] | 26 | 27.2 | 28 | 28.6 | 29.8 | 30.4 | 30.9 | 31.3 | 32.1 | 32.7 | 30.5 | 32.2 | 32.9 | 33.6 | 35.6 | 36 | 38.2 | 38.9 | 40.9 | 31.6 | cytotoxicity at 72 h, 0.005 µM [4]: 26.5%; cytotoxicity at 72 h, 0.015 µM [4]: 26.8%; cytotoxicity at 72 h, 0.045 µM [4]: 28.2%; cytotoxicity at 72 h, 0.13 µM [4]: 29.9%; cytotoxicity at 72 h, 0.41 µM [4]: 30.1%; cytotoxicity at 72 h, 1.23 µM [4]: 32.2%; cytotoxicity at 72 h, 3.7 µM [4]: 33.6%; cytotoxicity at 72 h, 11.11 µM [4]: 35%; cytotoxicity at 72 h, 33.33 µM [4]: 35.2%; cytotoxicity at 72 h, 100 µM [4]: 35.4%
